The values below come from ChEMBL document CHEMBL1153254, “Vasorelaxant activity of 2-substituted 6-nitro-2H-1-benzopyran-4-carbothioamide K+ channel openers” (Bioorg Med Chem Lett, 1993).

Experiment [1] is filed under the species Rattus norvegicus. The experiment is described as follows: Intrinsic activity in rat isolated aorta. The format is functional.
The species named for experiment [2] is Rattus norvegicus. Put plainly: Negative logarithm of the molar concentration required to relax rat aorta precontracted with 30 mM KCl by 50% of intrinsic activity. The format is functional. The note with it: for EC50: Rattus norvegicus, Aorta.

Compound `C/N=C(/S)C1=CC2(CCCCCC2)Oc2ccc([N+](=O)[O-])cc21` registered an IA in the experiment filed under Rattus norvegicus [1] of 61.5%. The concentration for a half-maximal effect (EC50) in the experiment listed under Rattus norvegicus [2] is 47.9 nM.
Taken in the same sequence, the figures for `CCCCC1(C)C=C(/C(S)=N\C)c2cc([N+](=O)[O-])ccc2O1` (stereo unspecified) were 66.5% and 40.7 nM.
With `C/N=C(/S)C1c2cc([N+](=O)[O-])ccc2OC(C)(C)C1O` (stereo in doubt; trans), the IA in the experiment filed under Rattus norvegicus [1] is listed as 73.2%. For the same compound, the “Log EC50” value in the experiment listed under Rattus norvegicus [2] was -6.58.
With `C/N=C(/S)C1=C(O)C(C)(C)Oc2ccc([N+](=O)[O-])cc21`, the IA in the experiment listed under Rattus norvegicus [1] came out at 93.9%. This compound also showed an EC50 in the experiment filed under Rattus norvegicus [2] of 1120 nM.
On to `C/N=C(/S)C1c2cc([N+](=O)[O-])ccc2OC(C)(C)C1O` (stereo in doubt; cis), for which the IA in the experiment listed under Rattus norvegicus [1] amounted to 57.9%. Besides, the “Log EC50” value in the experiment filed under Rattus norvegicus [2] was -6.96.
As for `C/N=C(/S)C1=CC(C)(C)Oc2ccc(C#N)cc21`, in the experiment listed under Rattus norvegicus [1], the IA was determined as 89%.
In the experiment listed under Rattus norvegicus [1], `C/N=C(/S)C1=CC(C(C)(C)C)Oc2ccc([N+](=O)[O-])cc21` (stereo unspecified) showed an IA of 71.7%. In the experiment listed under Rattus norvegicus [2], this compound gave an EC50 of 0.398 nM.
Taken in the same sequence, the figures for `CCC1(CC)C=C(/C(S)=N\C)c2cc([N+](=O)[O-])ccc2O1` were 70.3% and 0.372 nM.
Taken in the same sequence, the figures for `C/N=C(/S)C1=CC2(Oc3ccc([N+](=O)[O-])cc31)C1CC3CC(C1)CC2C3` (stereo unspecified) were 87.9% and 407 nM.
In the experiment listed under Rattus norvegicus [1], `CC(N/C(=N\C#N)Nc1ccncc1)C(C)(C)C` (stereo unspecified) [PINACIDIL ANHYDROUS] registered an IA of 91.9%.
In turn, `CCC1(C)C=C(/C(S)=N\C)c2cc([N+](=O)[O-])ccc2O1` (stereo unspecified) displayed an IA in the experiment filed under Rattus norvegicus [1] of 75.1%. In the experiment filed under Rattus norvegicus [2], this compound gave an EC50 of 0.182 nM.
`C/N=C(/S)C1=CC2(CCC2)Oc2ccc([N+](=O)[O-])cc21`: the IA in the experiment listed under Rattus norvegicus [1] is 68.2%. For the same compound, it took 0.0209 nM to reach a half-maximal effect in the experiment filed under Rattus norvegicus [2] (EC50).
In the experiment filed under Rattus norvegicus [1], `CCCC1(C)C=C(/C(S)=N\C)c2cc([N+](=O)[O-])ccc2O1` (stereo unspecified) gave an IA of 62.6%. This compound also showed an EC50 in the experiment listed under Rattus norvegicus [2] of 0.017 nM.
`C/N=C(/S)C1=CC(C)(C)Oc2ccc([N+](=O)[O-])cc21` registered an IA in the experiment listed under Rattus norvegicus [1] of 63.5%.
For the compound `CC1(C)Oc2ccc(C#N)cc2[C@@H](N2CCCC2=O)[C@@H]1O` [CROMAKALIM], in the experiment listed under Rattus norvegicus [1], the IA turned out to be 74.7%.
`C/N=C(/S)C1=CC2(CCCC2)Oc2ccc([N+](=O)[O-])cc21` returned an IA in the experiment filed under Rattus norvegicus [1] of 77.7%. Further, the EC50 in the experiment listed under Rattus norvegicus [2] was 0.0251 nM.
Compound `C/N=C(/S)C1=CC2(CCCCC2)Oc2ccc([N+](=O)[O-])cc21` yielded an IA in the experiment filed under Rattus norvegicus [1] of 77.6%. The compound also showed an EC50 in the experiment listed under Rattus norvegicus [2] of 0.112 nM.
With `CCC1C=C(/C(S)=N\C)c2cc([N+](=O)[O-])ccc2O1` (stereo unspecified), in the experiment filed under Rattus norvegicus [2], the EC50 was greater than 31600 nM.
